One block for each compound: values may come before it. Calls of active or inactive are those of the source. The rule behind the calls is not given here.
Tests used:
[1] = Fraction unbound in rat plasma; type: ADME, cell-free
[2] = Volume of distribution at steady state in rat at 1 mg/kg, iv; type: ADME, organism-based; set-up: dose 1 mg/kg, route intravenous; conditions: in vivo, read-out: Vdss
[3] = Oral bioavailability in rat at 5 mg/kg; type: ADME, organism-based; conditions: in vivo
[4] = Apparent permeability from apical to basolateral side of MDCK cells by RRCK assay; type: ADME, cell-based, Canis lupus familiaris; conditions: dog
[5] = molecular target: Dipeptidyl peptidase 8 (Homo sapiens, UniProt Q6V1X1)
[6] = Half life in rat at 1 mg/kg, iv and 5 mg/kg, po; type: ADME, organism-based; conditions: in vivo
[7] = system: Rattus norvegicus; assay: Ex vivo inhibition of DPP4 in rat at 5 mg/kg, po after 16 hrs; type: functional, organism-based; set-up: dose 5 mg/kg
[8] = Clearance in rat plasma at 1 mg/kg, iv and 5 mg/kg, po; type: ADME, organism-based
[9] = system: Liver microsomes; assay: Intrinsic clearance in human liver microsomes; type: ADME, Microsome
[10] = molecular target: Dipeptidyl peptidase 4 (Homo sapiens, UniProt P27487)
[11] = Fraction unbound in human plasma; type: ADME, cell-free
[12] = molecular target: Cytochrome P450 2D6 (Homo sapiens, UniProt P10635); assay: Inhibition of CYP2D6; type: ADME
[13] = Clearance in dog; type: ADME, organism-based, Canis lupus familiaris; conditions: in vivo
[14] = Half life in dog; type: ADME, organism-based, Canis lupus familiaris; conditions: in vivo
[15] = Volume of distribution at steady state in dog; type: ADME, organism-based, Canis lupus familiaris; conditions: in vivo, read-out: Vdss
[16] = molecular target: Cytochrome P450 2C9 (Homo sapiens, UniProt P11712); assay: Inhibition of CYP2C9; type: ADME
[17] = molecular target: T1, Cytochrome P450 1A2 (Homo sapiens, UniProt P05177); assay: Inhibition of CYP1A2; type: ADME
T1 sequence (P05177 whole entry): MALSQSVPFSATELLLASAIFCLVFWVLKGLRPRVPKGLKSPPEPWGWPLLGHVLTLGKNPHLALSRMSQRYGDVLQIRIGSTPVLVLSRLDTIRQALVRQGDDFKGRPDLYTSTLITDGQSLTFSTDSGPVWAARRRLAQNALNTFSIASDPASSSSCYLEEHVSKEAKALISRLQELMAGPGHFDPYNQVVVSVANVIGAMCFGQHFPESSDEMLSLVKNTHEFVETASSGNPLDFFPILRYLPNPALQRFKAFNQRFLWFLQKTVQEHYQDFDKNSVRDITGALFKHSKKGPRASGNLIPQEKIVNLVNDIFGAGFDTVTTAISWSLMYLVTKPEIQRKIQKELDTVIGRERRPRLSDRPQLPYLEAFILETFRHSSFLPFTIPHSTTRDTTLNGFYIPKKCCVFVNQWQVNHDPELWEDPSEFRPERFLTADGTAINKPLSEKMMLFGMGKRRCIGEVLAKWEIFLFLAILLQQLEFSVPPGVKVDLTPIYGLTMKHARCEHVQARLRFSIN

[18] = molecular target: Cytochrome P450 3A4 (Homo sapiens, UniProt P08684); assay: Inhibition of CYP3A4; type: ADME
[19] = Oral bioavailability in dog; type: ADME, organism-based, Canis lupus familiaris; conditions: in vivo
[20] = molecular target: Dipeptidyl peptidase 2 (Homo sapiens, UniProt Q9UHL4); assay: Inhibition of DPP2

Chain of Dipeptidyl peptidase 8 (Q6V1X1 whole entry): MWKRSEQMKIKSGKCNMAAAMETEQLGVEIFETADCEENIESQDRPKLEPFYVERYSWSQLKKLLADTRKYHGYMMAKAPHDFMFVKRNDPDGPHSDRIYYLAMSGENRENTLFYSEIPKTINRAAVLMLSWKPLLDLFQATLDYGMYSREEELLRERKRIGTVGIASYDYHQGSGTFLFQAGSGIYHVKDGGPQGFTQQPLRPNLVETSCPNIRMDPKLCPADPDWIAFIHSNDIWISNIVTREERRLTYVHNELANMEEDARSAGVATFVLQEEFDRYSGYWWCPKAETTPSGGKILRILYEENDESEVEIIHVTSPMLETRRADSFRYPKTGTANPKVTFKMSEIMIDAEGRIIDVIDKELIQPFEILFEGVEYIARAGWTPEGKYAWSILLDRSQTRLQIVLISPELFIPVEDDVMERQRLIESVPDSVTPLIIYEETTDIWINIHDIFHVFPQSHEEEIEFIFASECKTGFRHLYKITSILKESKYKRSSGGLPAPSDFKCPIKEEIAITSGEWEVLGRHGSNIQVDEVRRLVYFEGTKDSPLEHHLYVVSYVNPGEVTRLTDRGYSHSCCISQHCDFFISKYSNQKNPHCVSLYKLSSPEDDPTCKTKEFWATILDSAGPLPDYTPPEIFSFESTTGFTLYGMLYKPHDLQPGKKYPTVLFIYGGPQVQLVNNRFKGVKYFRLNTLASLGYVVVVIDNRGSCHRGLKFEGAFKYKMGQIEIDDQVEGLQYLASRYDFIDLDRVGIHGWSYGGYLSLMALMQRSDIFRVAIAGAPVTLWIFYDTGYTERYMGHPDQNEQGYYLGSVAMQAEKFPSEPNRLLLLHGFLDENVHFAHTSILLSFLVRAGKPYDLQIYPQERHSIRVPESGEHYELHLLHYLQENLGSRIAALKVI
Chain of Dipeptidyl peptidase 4 (P27487 whole entry): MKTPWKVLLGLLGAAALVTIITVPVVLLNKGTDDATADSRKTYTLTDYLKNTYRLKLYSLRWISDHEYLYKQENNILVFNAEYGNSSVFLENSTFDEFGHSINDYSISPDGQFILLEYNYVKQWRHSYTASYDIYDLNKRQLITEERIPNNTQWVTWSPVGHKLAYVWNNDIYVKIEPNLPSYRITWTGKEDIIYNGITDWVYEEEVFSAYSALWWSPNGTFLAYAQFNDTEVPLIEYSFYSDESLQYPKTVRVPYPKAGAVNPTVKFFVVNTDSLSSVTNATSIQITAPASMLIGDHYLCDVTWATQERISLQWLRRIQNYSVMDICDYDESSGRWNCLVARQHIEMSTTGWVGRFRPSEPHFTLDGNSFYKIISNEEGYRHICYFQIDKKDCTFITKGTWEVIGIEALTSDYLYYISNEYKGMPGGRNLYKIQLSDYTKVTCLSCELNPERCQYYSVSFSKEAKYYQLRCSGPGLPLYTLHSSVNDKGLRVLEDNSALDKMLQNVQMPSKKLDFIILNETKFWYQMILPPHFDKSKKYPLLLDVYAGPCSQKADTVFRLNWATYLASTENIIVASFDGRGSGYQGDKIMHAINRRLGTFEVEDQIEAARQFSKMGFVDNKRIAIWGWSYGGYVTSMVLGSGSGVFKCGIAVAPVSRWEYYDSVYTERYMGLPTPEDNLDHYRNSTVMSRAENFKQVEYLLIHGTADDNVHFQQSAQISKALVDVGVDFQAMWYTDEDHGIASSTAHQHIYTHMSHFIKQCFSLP
Chain of Cytochrome P450 2D6 (P10635 whole entry): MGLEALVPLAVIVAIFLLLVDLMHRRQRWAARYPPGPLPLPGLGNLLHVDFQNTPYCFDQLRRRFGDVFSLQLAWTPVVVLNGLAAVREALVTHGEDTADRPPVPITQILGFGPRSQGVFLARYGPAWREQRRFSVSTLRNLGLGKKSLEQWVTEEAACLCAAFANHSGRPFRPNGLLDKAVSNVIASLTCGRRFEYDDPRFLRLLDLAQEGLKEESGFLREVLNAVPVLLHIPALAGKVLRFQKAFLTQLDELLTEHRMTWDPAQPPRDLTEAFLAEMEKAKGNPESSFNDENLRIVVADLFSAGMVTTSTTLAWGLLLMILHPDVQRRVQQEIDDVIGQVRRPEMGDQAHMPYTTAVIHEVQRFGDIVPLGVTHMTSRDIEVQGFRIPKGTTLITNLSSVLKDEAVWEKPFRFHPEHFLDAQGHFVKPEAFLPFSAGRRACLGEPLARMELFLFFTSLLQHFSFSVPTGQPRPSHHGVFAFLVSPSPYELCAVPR
Chain of Cytochrome P450 3A4 (P08684 whole entry): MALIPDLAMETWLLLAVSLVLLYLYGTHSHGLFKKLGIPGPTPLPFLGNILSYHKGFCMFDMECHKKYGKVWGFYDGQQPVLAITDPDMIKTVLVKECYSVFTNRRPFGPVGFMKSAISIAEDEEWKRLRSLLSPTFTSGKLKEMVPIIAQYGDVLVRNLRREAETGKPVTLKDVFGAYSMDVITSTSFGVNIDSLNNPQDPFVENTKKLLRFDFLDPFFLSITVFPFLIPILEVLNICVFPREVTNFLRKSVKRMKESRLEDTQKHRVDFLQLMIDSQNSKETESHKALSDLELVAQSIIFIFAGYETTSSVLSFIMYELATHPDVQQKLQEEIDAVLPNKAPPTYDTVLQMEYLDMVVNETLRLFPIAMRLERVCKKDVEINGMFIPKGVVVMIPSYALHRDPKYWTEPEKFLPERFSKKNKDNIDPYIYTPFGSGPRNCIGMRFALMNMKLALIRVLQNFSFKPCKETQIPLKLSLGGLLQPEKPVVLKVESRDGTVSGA
Chain of Cytochrome P450 2C9 (P11712 whole entry): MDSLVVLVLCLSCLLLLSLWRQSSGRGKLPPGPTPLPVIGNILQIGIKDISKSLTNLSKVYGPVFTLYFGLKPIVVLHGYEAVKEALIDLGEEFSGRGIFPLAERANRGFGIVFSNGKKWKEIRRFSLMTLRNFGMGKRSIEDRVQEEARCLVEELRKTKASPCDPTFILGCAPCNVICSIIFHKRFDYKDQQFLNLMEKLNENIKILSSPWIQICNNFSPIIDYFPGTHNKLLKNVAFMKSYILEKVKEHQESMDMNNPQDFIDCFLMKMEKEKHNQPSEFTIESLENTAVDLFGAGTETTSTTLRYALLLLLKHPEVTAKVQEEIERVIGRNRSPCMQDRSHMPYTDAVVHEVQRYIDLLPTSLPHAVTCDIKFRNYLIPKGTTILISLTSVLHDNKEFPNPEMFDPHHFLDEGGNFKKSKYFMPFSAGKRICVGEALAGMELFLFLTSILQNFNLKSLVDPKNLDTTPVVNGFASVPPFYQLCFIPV

fraction unbound [1]: 0.86
Vd [2]: 4.7 L/kg
bioavailability [3]: 52%
Papp A→B [4]: 38 nm/s
IC50 [5]: > 30 µM
half-life [6]: 5 h
clearance [8]: 2.21 L/h/kg
Structure (SMILES): N[C@H]1CN(c2ncnc(N3CCC(F)(F)C3)n2)C[C@@H]1N1CCCCC1=O
inhibition [7]: Active

clearance [9]: < 7.2 µL/min/mg
IC50 [10]: 0.047 µM
Structure (SMILES): N[C@H]1CN(c2cc(-c3cc(F)c(F)cc3F)ncn2)C[C@@H]1N1CCCCC1=O

clearance [9]: 56 µL/min/mg
IC50 [10]: 0.0016 µM
Structure (SMILES): N[C@H]1CN(c2cc(N3CCc4nocc4C3)ncn2)C[C@@H]1c1ccccc1

fraction unbound [11]: 0.83
IC50 [12]: > 15 µM
clearance [13]: 0.432 L/h/kg
half-life [14]: 5.9 h
Vd [2]: 8.4 L/kg
Vd [15]: 1.9 L/kg
bioavailability [3]: 90%
Papp A→B [4]: 50 nm/s
IC50 [5]: > 30 µM
IC50 [16]: > 15 µM
half-life [6]: 3.6 h
IC50 [17]: > 15 µM
IC50 [18]: > 15 µM
bioavailability [19]: 150%
clearance [8]: 2.76 L/h/kg
Structure (SMILES): N[C@H]1CN(c2ncnc(N3CCC(F)(F)C3)n2)C[C@@H]1N1CC(F)(F)CCC1=O

clearance [9]: < 7 µL/min/mg
Structure (SMILES): N[C@H]1CN(c2cc(N3CCc4nocc4C3)ncn2)C[C@@H]1N1CCCC1=O

fraction unbound [1]: 0.82
Vd [2]: 5.7 L/kg
bioavailability [3]: 50%
Papp A→B [4]: 34 nm/s
IC50 [5]: > 30 µM
half-life [6]: 2.4 h
clearance [8]: 5.04 L/h/kg
Structure (SMILES): N[C@H]1CN(c2cc(N3CCC(F)(F)C3)ncn2)C[C@@H]1N1CC(F)(F)CCC1=O

IC50 [20]: > 30 µM
Papp A→B [4]: 27 nm/s
Structure (SMILES): COc1ccc(-c2cc(N3C[C@H](N)[C@@H](N4CCCCC4=O)C3)ncn2)cn1

clearance [9]: 38 µL/min/mg
IC50 [10]: 0.019 µM
Structure (SMILES): N[C@H]1CN(c2cc(NC3CC3)ncn2)C[C@@H]1c1ccccc1

clearance [9]: < 7 µL/min/mg
Structure (SMILES): N[C@H]1CN(c2cc(NC3CC3)ncn2)C[C@@H]1N1CCCCC1=O

Continued, compound first:

Structure (SMILES): N[C@H]1CN(c2cc(NC3CC3)ncn2)C[C@@H]1N1CCCC1=O
clearance [9]: < 7 µL/min/mg

Structure (SMILES): N[C@H]1CN(c2cc(N3CCc4nocc4C3)ncn2)C[C@@H]1N1CCCCC1=O
clearance [9]: < 7.5 µL/min/mg
IC50 [10]: 0.012 µM

Structure (SMILES): N[C@H]1CN(c2ncnc(-c3ccccc3)n2)C[C@@H]1N1CCCCC1=O
IC50 [20]: > 30 µM
Papp A→B [4]: 357 nm/s

Structure (SMILES): N[C@H]1CN(c2cc(-c3cc(F)cc(F)c3F)ncn2)C[C@@H]1c1ccccc1
clearance [9]: 85 µL/min/mg

Structure (SMILES): N[C@H]1CN(c2cc(N3CCC(F)(F)C3)ncn2)C[C@@H]1N1CCCCC1=O
fraction unbound [1]: 0.75
Vd [2]: 2.3 L/kg
bioavailability [3]: 21%
Papp A→B [4]: 18 nm/s
IC50 [5]: > 30 µM
half-life [6]: 0.78 h
IC50 [10]: 0.026 µM
inhibition [7]: Active
clearance [8]: 3.61 L/h/kg

Structure (SMILES): N[C@H]1CN(c2cc(-c3cc(F)c(F)cc3F)ncn2)C[C@@H]1N1CCCC1=O
clearance [9]: < 7 µL/min/mg
IC50 [10]: 0.488 µM

Structure (SMILES): Cc1nc(N2C[C@H](N)[C@@H](N3CC(F)(F)CCC3=O)C2)cc(N2CCC(F)(F)C2)n1
Papp A→B [4]: 39 nm/s
IC50 [5]: > 30 µM
IC50 [10]: 0.013 µM
